This is an account of results in ChEMBL document CHEMBL3045884, “Synthesis, characterization, anticancer, and antioxidant activity of some new thiazolidin-4-ones in MCF-7 cells” (Med Chem Res, 2013).

≈ marks a conversion by molar mass, not a printed value. Calls of active or inactive are those of the source. The calls are words filed in the database; no cut-off is given here.

The subject of test [1] is MCF7. Kind of test: Anticancer activity against Homo sapiens (human) MCF-7 cells assessed as inhibition of cell survival after 24 hr by MTT assay. The conditions noted are these: MCF7, 24 h. It counts as functional, cell-based.
The subject of test [2] is MCF7. Kind of test: Anticancer activity against Homo sapiens (human) MCF-7 cells assessed as cell survival at 100 ug/ml after 24 hr by MTT assay (reference value: 100%). The conditions noted are these: MCF7, 24 h, read-out: Survival. Format: functional.
Test [3] relates to MCF7. Kind of test: Anticancer activity against Homo sapiens (human) MCF-7 cells assessed as cell survival at 10 ug/ml after 24 hr by MTT assay (reference value: 100%). Format: functional. The note with it: MCF7, 24 h, read-out: Survival.
Test [4] relates to MCF7. Kind of test: Anticancer activity against Homo sapiens (human) MCF-7 cells assessed as cell survival at 1 ug/ml after 24 hr by MTT assay (reference value: 100%). The conditions noted are these: MCF7, 24 h, read-out: Survival. It counts as functional.
The subject of test [5] is MCF7. Kind of test: Anticancer activity against Homo sapiens (human) MCF-7 cells assessed as cell survival at 0.1 ug/ml after 24 hr by MTT assay (reference value: 100%). It counts as functional. The conditions noted are these: MCF7, 24 h, read-out: Survival.
The subject of test [6] is MCF7. Kind of test: Induction of apoptotic DNA fragmentation in Homo sapiens (human) MCF-7 cells assessed as increase in olive tail moment at 0.1 uM after 24 hr by comet assay. It counts as functional, cell-based.
Test [7] has as its system MCF7. Kind of test: Induction of apoptotic DNA fragmentation in Homo sapiens (human) MCF-7 cells assessed as increase in tail length at 0.1 uM after 24 hr by comet assay. It counts as functional, cell-based.
Test [8] has as its system MCF7. Kind of test: Induction of apoptotic DNA fragmentation in Homo sapiens (human) MCF-7 cells assessed as formation of comets at 54 ug/ml after 24 hr by comet assay. It counts as functional, cell-based.
A short description of test [9]: Antioxidant activity assessed as ABTS radical scavenging activity after 20 min by ELISA plate reader analysis. It counts as functional.
The test system of test [10] is Radical scavenging activity. Kind of test: Antioxidant activity assessed as DPPH radical scavenging activity after 20 min by ELISA plate reader analysis. It counts as functional.
Test [11] relates to MCF7. Kind of test: Induction of apoptotic DNA fragmentation in Homo sapiens (human) MCF-7 cells assessed as increase in olive tail moment after 24 hr by comet assay. It counts as functional, cell-based.
In test [12] the test system is MCF7. Kind of test: Induction of apoptotic DNA fragmentation in Homo sapiens (human) MCF7 cells assessed as increase in tail length after 24 hr by comet assay. Format: functional, cell-based.
The subject of test [13] is MCF7. Kind of test: Induction of apoptotic DNA fragmentation in Homo sapiens (human) MCF-7 cells assessed as formation of comets at 50 ug/ml after 24 hr by comet assay. Format: functional, cell-based.

As for `Cc1ccccc1OCc1nnc(S)n1N1C(=O)CSC1c1c[nH]nc1-c1ccc(F)cc1` (stereo not given), in the test with MCF7 [1], the IC50 was above 100 mg/L. Besides, the viability at 100 µg/mL in the test with MCF7 [2] turned out to be 62.1%. In addition, the viability at 10 µg/mL with MCF7 [3] was found to be 92.5%. In addition, in the test with MCF7 [4], the viability at 1 µg/mL stood at 83.1%. Also, the viability at 0.1 µg/mL in the test on MCF7 [5] came out at 81.4%.
As for `COc1cccc2c1C(=O)c1c(O)c3c(c(O)c1C2=O)C[C@@](O)(C(=O)CO)C[C@@H]3O[C@H]1C[C@H](N)[C@H](O)[C@H](C)O1`, the outcome in the test on MCF7 [6], in the test with MCF7 [7] and with MCF7 [8] was Active.
For the molecule `O=C1O[C@H]([C@@H](O)CO)C(O)=C1O` [ASCORBIC ACID], the IC50 in test [9] was 31.53 mg/L (≈ 179 µM); in test [10] it was 18.74 mg/L (≈ 106 µM).
Turning to `COc1ccc(-c2n[nH]cc2C2SCC(=O)N2n2c(S)nnc2COc2ccc(C)cc2)cc1` (stereo not given), the IC50 in the test on MCF7 [1] worked out at 78 mg/L (≈ 158 µM). Moreover, the viability at 100 µg/mL with MCF7 [2] was 43.7%. Also, the viability at 10 µg/mL in the test with MCF7 [3] is 90.2%. The viability at 1 µg/mL in the test on MCF7 [4] came to 95.4%. Further, in the test on MCF7 [5], the viability at 0.1 µg/mL turned out to be 95%.
As for `O=C1CSC(c2c[nH]nc2-c2ccc(F)cc2)N1n1c(S)nnc1COc1ccccc1` (stereo not given), the IC50 in test [9] was 143.67 mg/L (≈ 307 µM); in test [10], 27.16 mg/L (≈ 58 µM); with MCF7 [1] it was 30 mg/L (≈ 64 µM). The Activity entry with MCF7 [11] and in the test with MCF7 [12] was “Dose-dependent effect” throughout. In addition, the outcome with MCF7 [13] was Active. For the same molecule, the viability at 100 µg/mL in the test with MCF7 [2] is 33.6%. Further, in the test on MCF7 [3], the viability at 10 µg/mL was 76.5%. In addition, the viability at 1 µg/mL with MCF7 [4] amounted to 69.4%. Besides, the viability at 0.1 µg/mL with MCF7 [5] amounted to 65.9%.
In the case of `O=C1CSC(c2c[nH]nc2-c2ccc(F)cc2)N1n1c(S)nnc1COc1ccc2ccccc2c1` (stereo not given), the IC50 in the test with MCF7 [1] is above 100 mg/L. Further, the viability at 100 µg/mL in the test on MCF7 [2] was 96.5%. In addition, the viability at 10 µg/mL in the test on MCF7 [3] was 99.8%. In the test with MCF7 [4], the viability at 1 µg/mL was 100%. The viability at 0.1 µg/mL in the test on MCF7 [5] is 100%.
On to `O=C1CSC(c2c[nH]nc2-c2ccc(Cl)cc2)N1n1c(S)nnc1COc1cccc2ccccc12` (stereo not given), for which the IC50 in the test on MCF7 [1] worked out at 100 mg/L (≈ 187 µM). Moreover, in the test on MCF7 [2], the viability at 100 µg/mL is 51.8%. The viability at 10 µg/mL in the test on MCF7 [3] amounted to 60.3%. Also, the viability at 1 µg/mL in the test on MCF7 [4] came out at 70.5%. In the test on MCF7 [5], the viability at 0.1 µg/mL stood at 101%.
`COc1ccc(-c2n[nH]cc2C2SCC(=O)N2n2c(S)nnc2COc2ccccc2C)cc1` (stereo not given): the IC50 in test [9] is 165.78 mg/L (≈ 335 µM); in [10] it was 46.95 mg/L (≈ 94.9 µM); in the test with MCF7 [1] it was 29 mg/L (≈ 58.6 µM). The Activity entry with MCF7 [11] and with MCF7 [12] was “Dose-dependent effect” throughout. In addition, the result in the test on MCF7 [13] was Active. Further, the viability at 100 µg/mL with MCF7 [2] came to 25.4%. Moreover, the viability at 10 µg/mL with MCF7 [3] was 84.7%. The viability at 1 µg/mL in the test on MCF7 [4] is 87%. For the same molecule, the viability at 0.1 µg/mL with MCF7 [5] is 81.5%.
On to `Cc1ccc(OCc2nnc(S)n2N2C(=O)CSC2c2c[nH]nc2-c2ccc(F)cc2)cc1` (stereo not given), for which, in the test on MCF7 [1], the IC50 was above 100 mg/L. In addition, the viability at 100 µg/mL in the test with MCF7 [2] stood at 71.4%. The viability at 10 µg/mL with MCF7 [3] was 87.5%. For the same molecule, the viability at 1 µg/mL in the test with MCF7 [4] was 74.7%. Besides, in the test on MCF7 [5], the viability at 0.1 µg/mL was 80.8%.
Take `O=C1CSC(c2c[nH]nc2-c2ccc(Cl)cc2)N1n1c(S)nnc1COc1ccc2ccccc2c1` (stereo not given): the IC50 in the test on MCF7 [1] is 100 mg/L (≈ 187 µM). Moreover, in the test on MCF7 [2], the viability at 100 µg/mL amounted to 50.7%. The viability at 10 µg/mL in the test on MCF7 [3] is 81.4%. Also, the viability at 1 µg/mL with MCF7 [4] came out at 100%. Also, the viability at 0.1 µg/mL in the test on MCF7 [5] is 99.7%.
Take `COc1ccc(-c2n[nH]cc2C2SCC(=O)N2n2c(S)nnc2COc2ccccc2)cc1` (stereo not given): the IC50 in the test with MCF7 [1] came to 85 mg/L (≈ 177 µM). The viability at 100 µg/mL in the test with MCF7 [2] was 46.5%. Also, in the test with MCF7 [3], the viability at 10 µg/mL was 96.8%. Further, the viability at 1 µg/mL in the test on MCF7 [4] turned out to be 100%. In the test on MCF7 [5], the viability at 0.1 µg/mL was 100%.
As to `Cc1ccccc1OCc1nnc(S)n1N1C(=O)CSC1c1c[nH]nc1-c1ccc(Cl)cc1` (stereo not given), the IC50 is 73.03 mg/L (≈ 146 µM) in [9], 31.52 mg/L (≈ 63.2 µM) in test [10] and 22 mg/L (≈ 44.1 µM) in the test with MCF7 [1]. For the same molecule, the Activity entry in the test with MCF7 [11] and with MCF7 [12] was “Dose-dependent effect” each time. The result in the test with MCF7 [13] was Active. Moreover, the viability at 100 µg/mL with MCF7 [2] turned out to be 13.2%. In addition, the viability at 10 µg/mL in the test on MCF7 [3] was 67.6%. The viability at 1 µg/mL with MCF7 [4] was 80.7%. Further, the viability at 0.1 µg/mL with MCF7 [5] was found to be 70%.
